As a reminder, the pKa is the pH at which an ionisable group is half protonated. A higher pKa goes with a weaker acid or stronger base.

Series [1] in a line: pKa measurement of unformulated amine lipid (fluorescence, method of Jayaraman et al.). In kind it is physicochemical. As to conditions: 100 μM in 0.1 M phosphate buffer, pH 2.0-12.0. The protocol:
The pKa of each amine lipid was determined according to the method in Jayaraman, et al. (Angewandte Chemie, 2012) with the following adaptations. […] Lipid was diluted to 100 μM in 0.1 M phosphate buffer (Boston Bioproducts) where the pH ranged from 2.0-12.0. Fluorescence intensity was measured using excitation and emission wavelengths of 321 nm and 448 nm.

Series [2] in a line: RNA encapsulation efficiency of LNPs (Ribogreen fluorescence assay). In kind it is physicochemical. As to conditions: LNP, sg:mRNA 1:1, N/P about 6, amine lipid/DSPC/cholesterol/PEG-2k-DMG 50/9/38/3; Table 2, Experiments 2-20. The method in brief: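 LNPs were diluted in 1× TE with 0.2% Triton X-100 (total RNA) or without it (free RNA), stained with RiboGreen for ~10 min at room temperature in the dark, and read at Ex 488/Em 525 nm against standard curves of the starting RNA. Encapsulation efficiency = (Total − Free)/Total.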

Series [3] in a line: Dynamic light scattering of LNPs: Z-average diameter, number average diameter, PDI. In kind it is physicochemical. As to conditions: LNP, sg:mRNA 1:1, N/P about 6, 50/9/38/3; Table 2, Experiments 2-20. A digest of the protocol: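 LNP samples were diluted in PBS and measured by DLS to give intensity-based Z-average diameter, number average diameter and polydispersity index. PDI describes size spread around the mean, with zero meaning a uniform population.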

In series [4] the test system is Transthyretin (TTR). Kind of series: Serum TTR ELISA in mice after LNP dosing. In kind it is in vivo, CD-1 female mice. The following applies: guide G282 experiments; for Serum TTR % TSS: mouse serum TTR relative to TSS control; for Serum TTR: mouse serum, ELISA. The method in brief: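 Female CD-1 mice, 6–10 weeks, given LNPs by tail-vein injection (~10 mL/kg), 0.1 mg/kg unless noted; serum taken at day 6 or 7 by cardiac puncture. Total mouse TTR by ELISA on sera diluted 10,000-fold (0.1 mg/kg) or 10,000- and 2,500-fold (0.3 mg/kg).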
On the technique in general: An ELISA detects its analyte on a solid surface through an enzyme-linked reagent.

For `CCCCCCCCCCOC(=O)CCCCCCCC(=O)OCC(COC(=O)CCCC(=O)OC(CCCCCCCC)CCCCCCCC)COC(=O)NCCN(CC)CC` (stereo not drawn) [Compound 88, 1-decyl 9-(3-(((2-(diethylamino)ethyl)carbamoyl)oxy)-2-(((5-(heptadecan-9-yloxy)-5-oxopentanoyl)oxy)methyl)propyl) nonanedioate], the pKa in series [1] turned out to be 6.84. In addition, the “Encapsulation (%)” value in series [2] came to 98%. Further, in series [3], the “Number mean (nm)” value is 99.51 nm, the PDI amounted to 0.011 and the “Z-avg (nm)” value is on record as 117.1 nm. Besides, in series [4], the “Serum TTR % TSS” value was 77% and the “Serum TTR” value came out at 582 µg/mL.

As to `CCCCCCCCCCOC(=O)CCCCCCCC(=O)OCC(COC(=O)CCC(OCCCCCCCC)OCCCCCCCC)COC(=O)OCC1CCCN(CC)C1` (stereo not drawn) [Compound 72, 1-(3-((4,4-bis(octyloxy)butanoyl)oxy)-2-(((((1-ethylpiperidin-3-yl)methoxy)carbonyl)oxy)methyl)propyl) 9-decyl nonanedioate], the pKa in series [1] worked out at 6.07. Further, the “Encapsulation (%)” value in series [2] came out at 99%. Moreover, in series [3], the “Number mean (nm)” value is 75.22 nm, the PDI was found to be 0.002 and the “Z-avg (nm)” value was 91.65 nm. Moreover, in series [4], the “Serum TTR % TSS” value was 52% and the “Serum TTR” value stood at 479 µg/mL.

The molecule `CCCCC/C=C\C/C=C\CCCCCCCC(=O)OCC(COC(=O)CCC(OCCCCCCCC)OCCCCCCCC)COC(=O)NC1CCN(CC)CC1` (stereo not drawn) [Compound 37, 3-((4,4-bis(octyloxy)butanoyl)oxy)-2-((((1-ethylpiperidin-4-yl)carbamoyl)oxy)methyl)propyl (9Z,12Z)-octadeca-9,12-dienoate] displayed a pKa in series [1] of 7.84. Also, the “Encapsulation (%)” value in series [2] is given as 100%. In series [3], the “Number mean (nm)” value stood at 44.73 nm, the PDI is 0.091 and the “Z-avg (nm)” value worked out at 65.01 nm. Besides, in series [4], the “Serum TTR % TSS” value is on record as 77% and the “Serum TTR” value stood at 617 µg/mL.

In turn, `CCCCC/C=C\C/C=C\CCCCCCCC(=O)OCC(COC(=O)CCC(OCCCCCCCC)OCCCCCCCC)COC(=O)NCC1CCCN1C` (stereo not drawn) [Compound 39, 3-((4,4-bis(octyloxy)butanoyl)oxy)-2-(((((1-methylpyrrolidin-2-yl)methyl)carbamoyl)oxy)methyl)propyl (9Z,12Z)-octadeca-9,12-dienoate] gave a pKa in series [1] of 7.34. Besides, in series [2], the “Encapsulation (%)” value came to 97%. Besides, in series [3], the “Number mean (nm)” value turned out to be 64.79 nm, the PDI is reported as 0.024 and the “Z-avg (nm)” value was 79.81 nm. In series [4], the “Serum TTR % TSS” value is given as 82% and the “Serum TTR” value stood at 656 µg/mL.

The molecule `CCCCC/C=C\C/C=C\CCCCCCCC(=O)OCC(COC(=O)CCC(OCCCCCCCC)OCCCCCCCC)COC(=O)N1CCN(CC)CC1` (stereo not drawn) [Compound 48, 3-((4,4-bis(octyloxy)butanoyl)oxy)-2-((((9Z,12Z)-octadeca-9,12-dienoyl)oxy)methyl)propyl 4-ethylpiperazine-1-carboxylate] had a pKa in series [1] of 5.3. The “Encapsulation (%)” value in series [2] came out at 97%. Further, in series [3], the “Number mean (nm)” value amounted to 45.32 nm, the PDI was determined as 0.085 and the “Z-avg (nm)” value was found to be 64.68 nm. In series [4], the “Serum TTR % TSS” value worked out at 82% and the “Serum TTR” value was determined as 915 µg/mL.

`CCCCCCCCCCOC(=O)CCCCCCCCCC(=O)OCC(COC(=O)CCC(OCCCCCCCC)OCCCCCCCC)COC(=O)OCCCN(CC)CC` (stereo not drawn) [Compound 90, 1-(3-((4,4-bis(octyloxy)butanoyl)oxy)-2-((((3-(diethylamino)propoxy)carbonyl)oxy)methyl)propyl) 11-decyl undecanedioate]: the pKa in series [1] is 6.14. Also, in series [2], the “Encapsulation (%)” value came out at 99%. For the same molecule, in series [3], the “Number mean (nm)” value came to 81.15 nm, the PDI is 0.017 and the “Z-avg (nm)” value is recorded as 99.62 nm. Besides, in series [4], the “Serum TTR % TSS” value is reported as 67% and the “Serum TTR” value is 504 µg/mL.
